Measurements from PubChem BioAssay (NCI).
Values joined by “and” are separate entries in the source; they are usually repeats but may differ in a detail not shown here. Identical values can stand only once.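 Dose response: 5 concentrations. Exposure: 48 h. Format: 96-well plates. Endpoint: linear interpolation; highest concentration if not reached. Here, GI50 denotes the concentration required for 50% inhibition of growth. TGI: total growth inhibition.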

Legend:
Test in all cases: DTP human tumour cell line panel, 48 h
T-47D breast = tested on: T-47D breast
A549 NSCLC = tested on: A549 NSCLC
HOP-92 NSCLC = tested on: HOP-92 NSCLC
MCF7 breast = tested on: MCF7 breast
HCT-116 colon = tested on: HCT-116 colon
NCI-H460 lung = tested on: NCI-H460 lung
TK-10 renal = tested on: TK-10 renal
HT29 colon = tested on: HT29 colon
SNB-19 CNS = tested on: SNB-19 CNS
NCI/ADR-RES ovarian = tested on: NCI/ADR-RES ovarian

Structure (SMILES) | GI50 (T-47D breast) | TGI (T-47D breast) | GI50 (A549 NSCLC) | TGI (A549 NSCLC) | GI50 (HOP-92 NSCLC) | TGI (HOP-92 NSCLC) | GI50 (MCF7 breast) | TGI (MCF7 breast) | GI50 (HCT-116 colon) | TGI (HCT-116 colon) | GI50 (NCI-H460 lung) | TGI (NCI-H460 lung) | GI50 (TK-10 renal) | TGI (TK-10 renal) | GI50 (HT29 colon) | TGI (HT29 colon) | GI50 (SNB-19 CNS) | TGI (SNB-19 CNS) | GI50 (NCI/ADR-RES ovarian) | TGI (NCI/ADR-RES ovarian)
CCN(CC)CCOc1ccc(/C(=C(\C)c2ccc(F)c(OC)c2)c2ccc(Cl)cc2)cc1 | 2.41 µM | 5.86 µM | 2.61 µM | 5.63 µM | 1.3 µM | 3.68 µM | 2.17 µM | 4.74 µM | 2.24 µM | 4.86 µM | 2.07 µM | 4.24 µM | 2.56 µM | 5.31 µM | 0.582 µM | 2.87 µM | 2.83 µM | 5.17 µM | 2.36 µM | 4.69 µM
Cc1ccc(N(CSc2ccc(Cl)cc2)CSc2ccc(Cl)cc2)cc1 | 2.92 µM | 18.3 µM | 0.448 µM | > 100 µM | 1.3 µM | 6.73 µM | 2.25 µM | 12.1 µM | 1.52 µM | 10.9 µM | 0.575 µM | > 100 µM | 4.88 µM | > 100 µM | 1.85 µM | 24.1 µM | 1.48 µM | 19.8 µM | 1.38 µM | 9.04 µM
Nc1nc(Cl)cc(NCCO)n1 |  | > 100 µM |  | > 100 µM |  | > 100 µM |  | > 100 µM |  | > 100 µM |  | > 100 µM |  | > 100 µM |  | > 100 µM |  | > 100 µM |  | > 100 µM
O=C(CN(C1CCCCC1)C1CCCCC1)Nc1ccc(S(=O)(=O)c2ccc(NC(=O)CN(C3CCCCC3)C3CCCCC3)cc2)cc1 | 1.15 µM | 3.74 µM | 1.33 µM | 3.26 µM | 1.39 µM | 2.93 µM | 0.299 µM | 1.62 µM | 0.158 µM | 0.396 µM | 0.382 µM | 1.63 µM | 2.24 µM | 6.03 µM | 0.39 µM | 1.44 µM | 0.656 µM | 2.18 µM | 0.89 µM | 6.31 µM
CCN1C(=O)N(CC)C2C1NC(=S)N2/N=C/C=C/c1cccs1 (centres undefined) | 0.428 µM | > 100 µM | 0.508 µM | > 100 µM | 13.4 µM | > 100 µM | 0.26 µM | > 100 µM | 0.404 µM | > 100 µM | 0.363 µM | > 100 µM | > 47.5 µM | > 100 µM | 0.352 µM | > 100 µM | 0.508 µM | > 100 µM | 0.296 µM | > 100 µM
O=C(Nc1cccc(Cl)c1)c1cc2ccccc2cc1O | 1.88 µM and 1.73 µM | 8.92 µM and 6.82 µM | 3.63 µM and 3.31 µM | > 100 µM | 0.41 µM and 0.306 µM | 3.66 µM and 0.973 µM | 2.66 µM and 2.12 µM | > 100 µM | 1.68 µM and 0.828 µM | > 100 µM and 21.1 µM | 2.47 µM and 2.48 µM | > 100 µM | 5.58 µM and 5.82 µM | > 100 µM | 45.8 µM and 29.1 µM | > 100 µM | 2.94 µM and 2.37 µM | > 100 µM | 2.62 µM and 2.06 µM | 
COC(COC(=O)N1CCN(C=O)CC1)C1=C(N2CC2)C(=O)C(C)=C(N2CC2)C1=O (centres undefined) |  | 22.4 µM |  | 2.71 µM |  | 0.919 µM |  | 1.07 µM |  | 1.55 µM |  | 0.8 µM |  | 2.09 µM |  | 0.999 µM |  | 13.4 µM |  | 31.9 µM
Nc1c(C(=O)N/N=C/c2ccc(-c3ccc(Cl)cc3)o2)cnn1-c1ccnc2c(C(F)(F)F)cccc12 | 42.4 µM | > 100 µM | 83.9 µM | > 100 µM | 50.7 µM | > 100 µM | > 100 µM | > 100 µM | > 100 µM | > 100 µM | > 100 µM | > 100 µM | > 100 µM | > 100 µM | 77.4 µM | > 100 µM | > 100 µM | > 100 µM | > 100 µM | > 100 µM
NC(N)=N/N=C/c1cc(Cl)cc(Cl)c1O |  | > 100 µM |  | > 100 µM |  | > 100 µM |  | > 100 µM |  | > 100 µM |  | > 100 µM |  | > 100 µM |  | > 100 µM |  | > 100 µM |  | > 100 µM
Cc1ccc(Nc2nc(N)c(C(=O)c3ccc(C#N)cc3)s2)cc1 | 0.384 µM | > 100 µM | 0.739 µM | > 76.6 µM | 0.478 µM | 32.4 µM | 0.369 µM | > 100 µM | 0.241 µM | 6.74 µM | 0.389 µM | > 100 µM | 10.4 µM | > 78.8 µM | 0.25 µM | > 90.2 µM | 0.509 µM | 53.5 µM | 0.196 µM | 36.3 µM
CCOC(=O)C1=C(C)N(N)C(=S)NC1c1ccc(C)cc1 (centres undefined) | 23.1 µM | > 100 µM | 94.6 µM | > 100 µM | 0.932 µM | > 100 µM | 16 µM | 73.6 µM | 65.3 µM | > 100 µM | 24.4 µM | > 100 µM | 40.2 µM | > 100 µM | 26 µM | > 100 µM | 73 µM | > 100 µM | 61.9 µM | > 100 µM
O/N=C\c1c(O)ccc2ccccc12 |  | > 100 µM |  | > 100 µM |  | > 100 µM |  | > 100 µM |  | > 100 µM |  | > 100 µM |  | > 100 µM |  | > 100 µM |  | > 100 µM |  | > 100 µM
COc1ccc(CNc2c3ccccc3nc3ccccc23)cc1OC | 3.43 µM | 14.1 µM | 2.24 µM | 6.87 µM | 1.62 µM | 7.83 µM | 2.24 µM | 6.66 µM | 0.944 µM | 10.9 µM | 2.49 µM | 6.51 µM | 2.34 µM | 8.44 µM | 1.71 µM | 7.85 µM | 3.3 µM | 17.2 µM | 1.75 µM | 6.61 µM
CCCS(=O)(=O)Nc1ccc(Nc2c3ccccc3nc3ccccc23)c(OC)c1 |  | 20.5 µM |  | 5.99 µM |  | 17.5 µM |  | 16.3 µM |  | 13.2 µM |  | 2.6 µM |  | 15.6 µM |  | 7.16 µM |  | 8.98 µM |  | 37.1 µM
O=C(O)c1ccccc1-c1ccccc1C(=O)Nc1ccc2c(c1)Cc1cc(F)ccc1-2 |  | > 100 µM |  | 85.9 µM |  | > 100 µM |  | 85.5 µM |  | 33 µM |  | 68.2 µM |  | 90.9 µM |  | > 100 µM |  | > 100 µM |  | > 100 µM
CCN(CC)CCNCC(=O)Oc1ccc(/C=C/C(=O)CC(=O)/C=C/c2ccc(OC(=O)CNCCN(CC)CC)c(OC)c2)cc1OC | 6.1 µM | 31.6 µM | 6.73 µM | 39.8 µM | 3.93 µM | 33.1 µM | 2.58 µM | 18 µM | 2.81 µM | 12.3 µM | 3.41 µM | 22.2 µM | 6.72 µM | 23.5 µM | 2.36 µM | 6.02 µM | 4.94 µM | 20.2 µM | 5.73 µM | > 100 µM
CN1CCc2c(Sc3ccc(C(=O)NO)cc3)c3ccccc3n2C1 | 1.62 µM | 5.84 µM | 3.29 µM | 12.9 µM | 2 µM | 6.88 µM | 2.7 µM | 13.6 µM | 1.7 µM | 3.97 µM | 2.34 µM | 7.73 µM | 2.62 µM | 8.19 µM | 2.83 µM | 12.2 µM | 2.12 µM | 6.79 µM | 6.81 µM | 51.7 µM
O=C(Nc1ccc(Cl)cc1F)c1cc(Br)ccc1O | 0.56 µM | 4.46 µM | 1.42 µM | > 100 µM | 0.183 µM | 0.67 µM | 1.26 µM | > 100 µM | 0.805 µM | 3.19 µM | 0.653 µM | 18.3 µM | 4.15 µM | > 53.1 µM | 3.67 µM | > 100 µM | 0.508 µM | > 100 µM | 1.39 µM | 14.6 µM
c1ccc2c3ccn4cc5c(cc4c-3nc2c1)CCCC5 | 3.27 µM | 15 µM | 9.19 µM | 32.6 µM | 5.04 µM | 48.7 µM | 2.5 µM | 11 µM | 2.72 µM | 8.94 µM | 1.69 µM | 3.85 µM | 12.8 µM | 26 µM | 2.55 µM | 13 µM | 3.49 µM | 13.8 µM | 55 µM | > 100 µM
Nc1nc(Nc2ccccc2)c2ncn(Cc3cc4c(cc3Br)OCO4)c2n1 | < 0.01 µM | 21.4 µM | 0.0491 µM | 11.5 µM | 0.0651 µM | 20.7 µM | < 0.01 µM | 31.9 µM | 0.046 µM | 24.9 µM | 0.0304 µM | 17.6 µM | 0.114 µM | 18.1 µM | 0.0484 µM | 0.706 µM | 0.0686 µM | 22.3 µM | 0.0565 µM | > 37.5 µM
NC(=O)C(=CNc1nc(-c2ccc(Cl)c(Cl)c2)cs1)C(N)=O | > 100 µM | > 100 µM | 85.7 µM | > 100 µM | > 100 µM | > 100 µM | 80 µM | > 100 µM | > 100 µM | > 100 µM | 69.7 µM | > 100 µM | > 100 µM | > 100 µM | > 100 µM | > 100 µM | > 100 µM | > 100 µM | > 100 µM | > 100 µM
COc1ccccc1/C=C/c1cnccn1 |  | > 10 µM |  | > 10 µM |  | > 10 µM |  | > 10 µM |  | > 10 µM |  | > 10 µM |  | > 10 µM |  | > 10 µM |  | > 10 µM |  | > 10 µM
